This note sets out measurements from patent publication US11974987B2, “Monoacylglycerol lipase modulators for use in autism spectrum disorders” (Janssen Pharmaceutica NV, priority 2021, dated 2024).

Broadly, the IC50 is the point on the concentration scale where inhibition reaches its midpoint.

Like-named read-outs stand apart in the source and are kept apart here.

Test [1] deals with human MGL from HeLa cells (Homo sapiens (Human), UniProt Q99685). The test can be described thus: in vitro MGL activity assay ([glycerol-1,3-3H]-oleoyl glycerol cleavage). It counts as biochemical. As for the experimental part: The assay consists of combining endogenously expressed MGL from HeLa cells with test compounds, adding [glycerol-1,3-^3H]-oleoyl glycerol, incubating for one hour, and then measuring the amount of cleaved [1,3-^3H]-glycerol that passes through an activated carbon filter. The amount of cleaved, tritiated glycerol passing through the carbon filter is proportional to the activity of the MGL enzyme in a particular well/test condition.
Standard conditions for this assay combine 300 nM [Glycerol-1,3-^3H]-oleoyl glycerol with human MGL from HeLa cells and test compounds for one hour, after which the reaction is filtered through activated carbon and tritium is measured in the flow through. […] MGL is the predominant hydrolase in HeLa cells/cell homogenates.

The test system of a further test is C57BL/6J mice. The test can be described thus: Three-chamber sociability test in C57BL/6J mice (control). It counts as in vivo, mouse. The note with it: C57BL/6 mice, 3 mg/kg p.o., 60 minutes before testing. The method, then:
(§1) Biological Example 3. The behavioral effects of the compound of Example 78 were evaluated using an animal model of autism in a sociability assay after administration of the compound. The sociability assay was conducted using C57BL/6J mice (commerically available from the Jackon Laboratory, Bar Harbor, ME) as control, and BTBR T^+ Itpr3^tf/mice (referred herein as “BTBR”)(commerically available from the Jackon Laboratory, Bar Harbor, ME) as an autism model.
(§2) Thirty (30) C57BL/6J female mice and thirty (30) BTBR female mice (7-8 weeks old) were used in Biological Example 3. Upon arrival, mice were group-housed (4-5/cage) and acclimated for at least 5 days prior to commencing studies. Animals were maintained on a 12 hr light/dark cycle with room temperature maintained at 22±2° C. and approximately 50% humidity and had access to food and water ad libitum until the day before the experiment.
(§3) The two solutions listed in Table 4 were formulated fresh daily for p.o. administration. Both solutions comprise 20% 2-Hydroxypropyl-β-cyclodextrin (HP-3-CD). The solution containing Example 78 is in a concentration of 0.3 mg/mL.
(§4) Each type of mice is divided into two different treatment groups: those orally administered a Vehicle solution, and those orally administered with a solution of Example 78, both prepared according to Table 4 above. The mice were randomly assigned to treatment groups according to Table 5 below. Mice were administered the test article 60 minutes prior to testing.
(§5) Experiments were carried out in a gray plastic arena with two clear dividers creating three chambers (each 19 cm×45 cm). […] Two wire cup-like containers were placed in the corner of either end of the arena (right chamber and left chamber). These containers were used to house either stimulus or familiar mice. The arena was placed in a room with dim lighting (˜10 lux). Animals were brought into the room to acclimate for at least 1 hour prior to beginning experiment.
Initially, empty wire cups are placed into the right and left chambers. Each of the C57BL/6J or BTBR mouse was placed into the center chamber and allowed to habituate for 10 minutes to the arena. After the 10-minute habituation and with the animal still in the arena, a first stimulus mouse, which was subsequently considered a familiar mouse, was placed inside one of the wire cups in either the right or left chamber. In the other wire cup, a small object was placed. […]
During the latter 10-minute period, activity of each mouse was recorded and analyzed using the Noldus EthoVision™ software, which is a video tracking software that tracks and analyzes the behavior, movement. The following data were record and scored using activity of each mouse for: […]
Data were plotted and analyzed using GraphPad Prism (version 9.1.1) software. […]

A further test concerns BTBR mice. Nature of the test: Three-chamber sociability test in BTBR mice (autism model). It counts as in vivo, mouse. The note with it: 3 mg/kg p.o., 60 minutes before testing. The method, then: as §1
The BTBR mice used in Biological Example 3 was derived from the inbred strain BTBR (Black and Tan BRachyury) that carried the mutations a^t (nonagouti; black and tan), Itpr3^tf (inositol 1,4,5-triphosphate receptor 3; tufted), and T (brachyury). […] (Wahlsten D, 2003 Brain Res). […] (McFarlane H G, 2008, Gen, Brain Behav; Moy S S, 2007, Behav Br Res, Scattoni M L, 2008, PLos). This strain of mice contains the Trem2S148E allele—a naturally occurring variant at position 48351151-48351152 on Chr 17 (rs108080490 and rs107649577; Ensembl GRCm38.p6). This TC to GA transition results in a serine to glutamic acid substitution at amino acid 148 (S148E).
as §2, §3, §4, §5
Initially, empty wire cups are placed into the right and left chambers. Each of the C57BL/6J or BTBR mouse was placed into the center chamber and allowed to habituate for 10 minutes to the arena. After the 10-minute habituation and with the animal still in the arena, a first stimulus mouse, which was subsequently considered a familiar mouse, was placed inside one of the wire cups in either the right or left chamber. In the other wire cup, a small object was placed. The placement of the stimulus mouse and small object switched sides across subjects. The C57BL/6J or BTBR mouse was allowed 10 minutes to explore all three chambers. A second stimulus mouse was subsequently placed in the wire cup in the opposite chamber. The first stimulus mouse was considered as familiar mouse. Again, the C57BL/6J or BTBR mouse was allowed 10 minutes to explore all three chambers.
During the latter 10-minute period, activity of each mouse was recorded and analyzed using the Noldus EthoVision™ software, which is a video tracking software that tracks and analyzes the behavior, movement. The following data were record and scored using activity of each mouse for:
(1) Duration and number of direct/active contacts between the test mouse and both wire cups (stimulus vs. familiar); Active contact was defined as mouse stretching towards wire cup within a 3-5 mm area around the cup; and […]

Setting [2] is: 300 nM [Glycerol-1,3-3H]-oleoyl glycerol, one hour, read-out: MGL IC50.

Chain of human MGL from HeLa cells (Q99685 whole entry): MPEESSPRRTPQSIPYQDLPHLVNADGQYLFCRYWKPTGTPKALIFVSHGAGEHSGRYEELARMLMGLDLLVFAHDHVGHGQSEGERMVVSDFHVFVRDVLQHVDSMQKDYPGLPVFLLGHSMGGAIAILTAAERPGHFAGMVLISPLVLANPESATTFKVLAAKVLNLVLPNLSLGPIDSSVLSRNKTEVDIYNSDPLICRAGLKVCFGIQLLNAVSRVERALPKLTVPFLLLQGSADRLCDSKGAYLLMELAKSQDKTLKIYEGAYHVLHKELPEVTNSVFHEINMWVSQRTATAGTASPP

In test [1], `O=C1CC[C@]2(C[C@H](C(=O)N3CCC4(c5cccc(OC(F)(F)F)c5)CC4C3)C2)N1` (mixture of isomers) [Example 52, (rac)-(2r,4s)-2-(6-(3-(Trifluoromethoxy)phenyl)-3-azabicyclo[4.1.0]heptane-3-carbonyl)-5-azaspiro[3.4]octan-6-one] returned an IC50 of 4.8 nM.
For the compound `O=C1CC[C@]2(C[C@H](C(=O)N3CCC4(c5ccc(OC(F)(F)F)cc5)CC4C3)C2)N1` (mixture of isomers) [Example 55, (rac)-(2r,4s)-2-(6-(4-(Trifluoromethoxy)phenyl)-3-azabicyclo[4.1.0]heptane-3-carbonyl)-5-azaspiro[3.4]octan-6-one], the half-maximal inhibitory concentration (IC50) in test [1] (setting [2]) amounted to 10 nM.
For the compound `O=C1CC[C@]2(C[C@H](C(=O)N3CCC4(c5ccc(C(F)(F)F)cc5)CC4C3)C2)N1` (mixture of isomers) [Example 59, (rac)-(2r,4s)-2-(6-(4-(Trifluoromethyl)phenyl)-3-azabicyclo[4.1.0]heptane-3-carbonyl)-5-azaspiro[3.4]octan-6-one], the IC50 in test [1] (setting [2]) was 18 nM.
Turning to `Cc1cccc([C@]23CCN(C(=O)[C@H]4C[C@]5(COC(=O)N5)C4)C[C@H]2C3)c1` (relative stereo) [Example 44, (2s,4*R)-2-((1*S,6*R)-6-(m-Tolyl)-3-azabicyclo[4.1.0]heptane-3-carbonyl)-7-oxa-5-azaspiro[3.4]octan-6-one], the IC50 in test [1] (setting [2]) came to 2.8 nM.
Regarding `O=C1CC[C@]2(C[C@H](C(=O)N3CC[C@@]4(c5cccc(OC(F)(F)F)c5)C[C@H]4C3)C2)N1` (stereo in doubt) [Example 119, (2r,4*S)-2-((1*R,6*S)-6-(3-(Trifluoromethoxy)phenyl)-3-azabicyclo[4.1.0]heptane-3-carbonyl)-5-azaspiro[3.4]octan-6-one], in test [1] (setting [2]), the IC50 turned out to be 5.2 nM.
In the case of `O=C1CC[C@]2(C[C@H](C(=O)N3CC[C@]4(c5cccc(OC(F)(F)F)c5)C[C@@H]4C3)C2)N1` (stereo in doubt) [Example 120, (2r,4*R)-2-((1*S,6*R)-6-(3-(Trifluoromethoxy)phenyl)-3-azabicyclo[4.1.0]heptane-3-carbonyl)-5-azaspiro[3.4]octan-6-one], the IC50 in test [1] (setting [2]) was 23 nM.
`O=C1CC[C@]2(C[C@H](C(=O)N3CC[C@@]4(c5ccc(OC(F)(F)F)cc5)C[C@H]4C3)C2)N1` (stereo in doubt) [Example 121, (2r,4*S)-2-((1*R,6*S)-6-(4-(Trifluoromethoxy)phenyl)-3-azabicyclo[4.1.0]heptane-3-carbonyl)-5-azaspiro[3.4]octan-6-one]: the IC50 in test [1] (setting [2]) amounted to 42 nM.
As for `O=C1CC[C@]2(C[C@H](C(=O)N3CC[C@]4(c5ccc(OC(F)(F)F)cc5)C[C@@H]4C3)C2)N1` (stereo in doubt) [Example 122, (2r,4*R)-2-((1*S,6*R)-6-(4-(Trifluoromethoxy)phenyl)-3-azabicyclo[4.1.0]heptane-3-carbonyl)-5-azaspiro[3.4]octan-6-one], in test [1] (setting [2]), the IC50 came out at 12 nM.
For the compound `CC(C)(C)c1cccc([C@H]2[C@@H]3CN(C(=O)[C@H]4C[C@]5(COC(=O)N5)C4)C[C@@H]32)c1` [Example 78, (2s,4S)-2-((1R,5S,6S)-6-(3-(tert-Butyl)phenyl)-3-azabicyclo[3.1.0]hexane-3-carbonyl)-7-oxa-5-azaspiro[3.4]octan-6-one], in the test on C57BL/6J mice, the “Mean Diff., amount of time spent exploring familiar mouse chamber and stimulus mouse chamber (Bonferroni's multiple comparisons test)” value was −23.01; the “Mean Diff., amount of time spent interacting with familiar mouse or stimulus mouse (Bonferroni's multiple comparisons test)” value came out at 2.873; the “Mean Diff., number of entries into familiar mouse chamber and stimulus mouse chamber (Bonferroni's multiple comparisons test)” value was determined as 8.133; the “Mean Diff., number of interactions with familiar mouse or stimulus mouse (Bonferroni's multiple comparisons test)” value is given as 37.87. In the test with BTBR mice, the “Mean Diff., amount of time spent exploring familiar mouse chamber and stimulus mouse chamber (Bonferroni's multiple comparisons test)” value was −40.36; the “Mean Diff., amount of time spent interacting with familiar mouse or stimulus mouse (Bonferroni's multiple comparisons test)” value is −5.578; the “Mean Diff., number of entries into familiar mouse chamber and stimulus mouse chamber (Bonferroni's multiple comparisons test)” value is given as 4.133; the “Mean Diff., number of interactions with familiar mouse or stimulus mouse (Bonferroni's multiple comparisons test)” value was −47.07. In the test with BTBR mice, the “preference to familiar mouse over stimulus mouse (FIGS. 1C and 1D)” value is listed as “did not show preference to familiar mouse over stimulus mouse”; the “social interaction (interest in social novelty) as compared to BTBR mice treated with placebo” value is given as “improved social interaction”.
For `CC(C)c1cccc([C@H]2[C@@H]3CN(C(=O)[C@H]4C[C@]5(COC(=O)N5)C4)C[C@@H]32)c1` [Example 84, (2s,4S)-2-((1R,5S,6S)-6-(3-Isopropylphenyl)-3-azabicyclo[3.1.0]hexane-3-carbonyl)-7-oxa-5-azaspiro[3.4]octan-6-one], the IC50 in test [1] (setting [2]) stood at 5.5 nM.
